Experimental data published in PMC8725837, “2-Arylquinolines as novel anticancer agents with dual EGFR/FAK kinase inhibitory activity: synthesis, biological evaluation, and molecular modelling insights” (Journal of Enzyme Inhibition and Medicinal Chemistry, 2021).

Columns and labels:
c-Src = target: T1, c-Src (Homo sapiens, UniProt P12931); test: Z`-LYTE kinase profiling, c-Src; assay type: biochemical
T1 construct: purchased Invitrogen/Life Technologies

BTK = target: T2, BTK (Homo sapiens, UniProt Q06187); test: Z`-LYTE kinase profiling, BTK; assay type: biochemical
T2 construct: purchased Invitrogen/Life Technologies
T2 sequence (Q06187 whole entry): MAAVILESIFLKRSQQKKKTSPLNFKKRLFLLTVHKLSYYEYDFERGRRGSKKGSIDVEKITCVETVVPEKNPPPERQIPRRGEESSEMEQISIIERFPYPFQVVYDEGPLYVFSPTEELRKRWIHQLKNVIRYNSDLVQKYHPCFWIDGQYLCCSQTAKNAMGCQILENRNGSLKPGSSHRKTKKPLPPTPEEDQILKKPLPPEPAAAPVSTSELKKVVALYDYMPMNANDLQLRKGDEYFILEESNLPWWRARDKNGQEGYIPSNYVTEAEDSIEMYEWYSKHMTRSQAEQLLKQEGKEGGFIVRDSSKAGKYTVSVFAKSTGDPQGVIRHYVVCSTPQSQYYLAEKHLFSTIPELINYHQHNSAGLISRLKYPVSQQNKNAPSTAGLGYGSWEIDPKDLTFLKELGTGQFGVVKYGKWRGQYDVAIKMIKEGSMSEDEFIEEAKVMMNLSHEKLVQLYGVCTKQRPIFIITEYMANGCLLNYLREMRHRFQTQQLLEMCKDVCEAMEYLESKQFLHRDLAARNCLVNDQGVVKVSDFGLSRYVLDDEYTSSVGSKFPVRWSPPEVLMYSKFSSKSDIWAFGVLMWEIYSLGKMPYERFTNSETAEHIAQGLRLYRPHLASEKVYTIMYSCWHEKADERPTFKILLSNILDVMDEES

FAK = FAK (Homo sapiens, UniProt Q05397); test: Z`-LYTE kinase inhibitory assay, FAK
[1] = system: MCF-7 breast cancer cell line; test: MTT antiproliferative assay, MCF-7; assay type: cell-based; settings: 10 µM, 24 h
Experimental: (§1) At least, three independent experiments were performed.

VEGFR-1 = target: T3, VEGFR-1 (Homo sapiens, UniProt P17948); test: Z`-LYTE kinase profiling, VEGFR-1; assay type: biochemical
T3 construct: purchased Invitrogen/Life Technologies
T3 sequence (P17948 27-1338): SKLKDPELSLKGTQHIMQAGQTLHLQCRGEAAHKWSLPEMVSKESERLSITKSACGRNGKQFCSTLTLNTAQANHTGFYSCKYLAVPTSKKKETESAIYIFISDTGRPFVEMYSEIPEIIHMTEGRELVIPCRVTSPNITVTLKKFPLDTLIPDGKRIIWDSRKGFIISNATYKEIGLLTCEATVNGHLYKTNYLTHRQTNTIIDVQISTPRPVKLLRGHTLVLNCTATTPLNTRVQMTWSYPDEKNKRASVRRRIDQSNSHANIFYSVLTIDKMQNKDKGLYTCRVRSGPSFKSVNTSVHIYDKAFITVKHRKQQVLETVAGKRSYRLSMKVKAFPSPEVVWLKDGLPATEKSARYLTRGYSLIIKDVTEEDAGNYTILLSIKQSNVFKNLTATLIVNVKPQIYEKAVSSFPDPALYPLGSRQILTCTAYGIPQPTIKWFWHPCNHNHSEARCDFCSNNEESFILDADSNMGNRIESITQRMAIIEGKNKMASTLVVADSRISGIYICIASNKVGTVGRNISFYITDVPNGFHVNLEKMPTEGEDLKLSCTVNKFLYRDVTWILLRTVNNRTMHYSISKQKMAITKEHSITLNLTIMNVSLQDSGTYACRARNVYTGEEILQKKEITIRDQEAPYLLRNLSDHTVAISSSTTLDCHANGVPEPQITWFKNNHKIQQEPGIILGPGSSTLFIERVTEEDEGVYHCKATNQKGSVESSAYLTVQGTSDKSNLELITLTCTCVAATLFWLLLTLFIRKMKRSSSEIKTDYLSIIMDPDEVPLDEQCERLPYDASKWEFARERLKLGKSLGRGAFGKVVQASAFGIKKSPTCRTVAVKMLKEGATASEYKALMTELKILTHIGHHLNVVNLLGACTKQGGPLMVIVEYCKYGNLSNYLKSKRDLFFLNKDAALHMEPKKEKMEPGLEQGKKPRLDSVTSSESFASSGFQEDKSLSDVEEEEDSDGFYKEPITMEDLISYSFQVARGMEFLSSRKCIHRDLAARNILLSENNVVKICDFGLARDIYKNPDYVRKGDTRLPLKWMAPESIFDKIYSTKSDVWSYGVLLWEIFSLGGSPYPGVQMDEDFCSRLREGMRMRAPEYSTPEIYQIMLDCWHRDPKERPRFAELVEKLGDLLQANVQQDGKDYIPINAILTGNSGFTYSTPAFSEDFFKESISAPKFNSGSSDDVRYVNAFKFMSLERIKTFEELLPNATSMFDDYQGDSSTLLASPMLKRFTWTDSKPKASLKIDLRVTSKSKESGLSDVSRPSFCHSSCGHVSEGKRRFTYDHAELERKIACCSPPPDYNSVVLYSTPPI

FRK = target: T4, FRK (Homo sapiens, UniProt P42685); test: Z`-LYTE kinase profiling, FRK; assay type: biochemical
T4 construct: purchased Invitrogen/Life Technologies
T4 sequence (P42685 whole entry): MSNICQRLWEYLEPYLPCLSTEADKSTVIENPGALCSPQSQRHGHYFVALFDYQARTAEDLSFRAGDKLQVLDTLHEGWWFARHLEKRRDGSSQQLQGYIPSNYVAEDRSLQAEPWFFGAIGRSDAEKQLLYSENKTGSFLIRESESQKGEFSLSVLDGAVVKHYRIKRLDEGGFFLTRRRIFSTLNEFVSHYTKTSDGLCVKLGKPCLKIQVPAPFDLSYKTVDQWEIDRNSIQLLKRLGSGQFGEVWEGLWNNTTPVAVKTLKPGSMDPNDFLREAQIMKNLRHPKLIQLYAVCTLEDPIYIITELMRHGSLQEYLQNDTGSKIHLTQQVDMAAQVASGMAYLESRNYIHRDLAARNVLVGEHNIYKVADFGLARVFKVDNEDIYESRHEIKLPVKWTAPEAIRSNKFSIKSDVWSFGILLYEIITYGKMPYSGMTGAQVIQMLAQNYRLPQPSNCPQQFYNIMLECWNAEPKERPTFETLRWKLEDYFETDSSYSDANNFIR

[2] = system: MDMBA-231 breast cancer cell line; test: MTT antiproliferative assay, MDMBA-231; assay type: cell-based; settings: 10 µM, 24 h
Experimental: as §1

VEGFR-2 = target: T5, VEGFR-2 (Homo sapiens, UniProt P35968); test: Z`-LYTE kinase profiling, VEGFR-2; assay type: biochemical
T5 construct: purchased Invitrogen/Life Technologies

IGF-1R = target: T6, IGF-1R (Homo sapiens, UniProt P08069); test: Z`-LYTE kinase profiling, IGF-1R; assay type: biochemical
T6 construct: purchased Invitrogen/Life Technologies

HER-2 = target: T7, HER-2 (Homo sapiens, UniProt P04626); test: Z`-LYTE kinase profiling, HER-2; assay type: biochemical
T7 construct: purchased Invitrogen/Life Technologies
T7 sequence (P04626 23-1255): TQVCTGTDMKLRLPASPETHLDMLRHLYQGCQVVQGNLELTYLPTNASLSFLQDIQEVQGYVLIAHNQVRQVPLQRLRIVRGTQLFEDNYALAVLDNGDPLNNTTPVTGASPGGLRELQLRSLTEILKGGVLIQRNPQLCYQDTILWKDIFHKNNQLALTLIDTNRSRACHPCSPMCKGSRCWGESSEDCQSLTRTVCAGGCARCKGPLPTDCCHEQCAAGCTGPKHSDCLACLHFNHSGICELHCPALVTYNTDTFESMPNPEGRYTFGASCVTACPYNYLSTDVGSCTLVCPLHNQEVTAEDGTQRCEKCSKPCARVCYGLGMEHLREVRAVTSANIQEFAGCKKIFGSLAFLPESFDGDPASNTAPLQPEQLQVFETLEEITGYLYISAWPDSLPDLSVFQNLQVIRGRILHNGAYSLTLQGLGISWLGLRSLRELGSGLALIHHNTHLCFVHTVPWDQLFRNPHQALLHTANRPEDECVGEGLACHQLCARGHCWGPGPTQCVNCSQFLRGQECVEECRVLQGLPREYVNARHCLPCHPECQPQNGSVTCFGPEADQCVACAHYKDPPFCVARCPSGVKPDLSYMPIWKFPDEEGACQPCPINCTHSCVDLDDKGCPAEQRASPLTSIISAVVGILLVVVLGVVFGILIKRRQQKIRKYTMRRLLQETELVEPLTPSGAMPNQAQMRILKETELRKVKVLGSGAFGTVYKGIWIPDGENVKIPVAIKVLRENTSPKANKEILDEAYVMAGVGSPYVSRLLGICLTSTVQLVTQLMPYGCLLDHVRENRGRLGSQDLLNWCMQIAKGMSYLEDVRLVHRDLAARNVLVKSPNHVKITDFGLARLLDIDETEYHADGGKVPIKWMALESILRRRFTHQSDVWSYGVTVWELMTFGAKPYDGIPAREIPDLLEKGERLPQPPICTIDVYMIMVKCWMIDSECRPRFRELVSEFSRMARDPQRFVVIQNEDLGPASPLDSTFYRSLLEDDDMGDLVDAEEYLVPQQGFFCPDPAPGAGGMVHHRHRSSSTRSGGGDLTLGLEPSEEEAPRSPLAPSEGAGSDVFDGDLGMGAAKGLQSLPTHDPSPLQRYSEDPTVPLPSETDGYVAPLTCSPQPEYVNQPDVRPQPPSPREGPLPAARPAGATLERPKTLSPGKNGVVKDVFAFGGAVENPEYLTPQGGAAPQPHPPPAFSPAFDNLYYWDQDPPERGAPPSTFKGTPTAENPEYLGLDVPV

recombinant human TOP1 = target: T8, recombinant human TOP1 (Homo sapiens, UniProt P11387); test: Topoisomerase I-mediated DNA cleavage assay; settings: tested at 0.1, 1, 10, 100 µM
T8 sequence (P11387 1-765): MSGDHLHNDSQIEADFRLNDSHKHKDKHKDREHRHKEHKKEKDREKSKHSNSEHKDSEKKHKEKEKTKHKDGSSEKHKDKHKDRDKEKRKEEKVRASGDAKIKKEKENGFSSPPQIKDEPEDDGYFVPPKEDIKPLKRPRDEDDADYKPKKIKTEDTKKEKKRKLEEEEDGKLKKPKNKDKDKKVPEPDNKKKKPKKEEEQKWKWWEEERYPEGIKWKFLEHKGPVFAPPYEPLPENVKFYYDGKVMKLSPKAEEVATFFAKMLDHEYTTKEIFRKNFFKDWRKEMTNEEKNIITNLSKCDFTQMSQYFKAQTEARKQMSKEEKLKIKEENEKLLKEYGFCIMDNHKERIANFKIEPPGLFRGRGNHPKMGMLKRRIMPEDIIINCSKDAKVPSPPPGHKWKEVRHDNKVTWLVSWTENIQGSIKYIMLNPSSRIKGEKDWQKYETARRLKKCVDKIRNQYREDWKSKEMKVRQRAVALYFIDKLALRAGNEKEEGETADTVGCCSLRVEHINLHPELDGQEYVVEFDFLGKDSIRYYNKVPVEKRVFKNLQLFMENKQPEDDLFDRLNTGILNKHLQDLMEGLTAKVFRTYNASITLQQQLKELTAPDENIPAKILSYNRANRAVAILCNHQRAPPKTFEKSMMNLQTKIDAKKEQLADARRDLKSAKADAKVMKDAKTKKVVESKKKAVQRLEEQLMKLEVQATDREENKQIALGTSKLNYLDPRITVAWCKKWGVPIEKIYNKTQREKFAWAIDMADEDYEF
Experimental: Radiolabeled DNA was incubated with recombinant human TOP1 in 20 µL reaction buffer (10 mmol/L Tris-HCl, pH 7.5, 50 mmol/L KCl, 5 mmol/L MgCl2, 0.1 mmol/L EDTA, and 15 µg/mL BSA) at 30 °C for 20 min in the presence of the indicated drug concentrations. Reactions were terminated by adding SDS (0.5% final concentration) followed by the addition of two volumes of loading dye (80% formamide, 10 mmol/L sodium hydroxide, 1 mmol/L sodium EDTA, 0.1% xylene cyanol, and 0.1% bromophenol blue). Aliquots of reaction mixtures were subjected to 20% denaturing PAGE. Gels were dried and visualised by using PhosphorImager and Image Quant software (Molecular Dynamics).

[3] = system: DLD-1 colorectal cancer cell line; test: MTT antiproliferative assay, DLD-1; settings: for GI% DLD1: 10 µM, 24 h, MTT; for IC50: Homo sapiens, DLD-1, 24 h, read-out: IC50 DLD1 (half maximal growth inhibitory concentration)
EGFR = EGFR (Homo sapiens, UniProt P00533); test: Z`-LYTE kinase inhibitory assay, EGFR
Chain of EGFR (P00533 25-1210): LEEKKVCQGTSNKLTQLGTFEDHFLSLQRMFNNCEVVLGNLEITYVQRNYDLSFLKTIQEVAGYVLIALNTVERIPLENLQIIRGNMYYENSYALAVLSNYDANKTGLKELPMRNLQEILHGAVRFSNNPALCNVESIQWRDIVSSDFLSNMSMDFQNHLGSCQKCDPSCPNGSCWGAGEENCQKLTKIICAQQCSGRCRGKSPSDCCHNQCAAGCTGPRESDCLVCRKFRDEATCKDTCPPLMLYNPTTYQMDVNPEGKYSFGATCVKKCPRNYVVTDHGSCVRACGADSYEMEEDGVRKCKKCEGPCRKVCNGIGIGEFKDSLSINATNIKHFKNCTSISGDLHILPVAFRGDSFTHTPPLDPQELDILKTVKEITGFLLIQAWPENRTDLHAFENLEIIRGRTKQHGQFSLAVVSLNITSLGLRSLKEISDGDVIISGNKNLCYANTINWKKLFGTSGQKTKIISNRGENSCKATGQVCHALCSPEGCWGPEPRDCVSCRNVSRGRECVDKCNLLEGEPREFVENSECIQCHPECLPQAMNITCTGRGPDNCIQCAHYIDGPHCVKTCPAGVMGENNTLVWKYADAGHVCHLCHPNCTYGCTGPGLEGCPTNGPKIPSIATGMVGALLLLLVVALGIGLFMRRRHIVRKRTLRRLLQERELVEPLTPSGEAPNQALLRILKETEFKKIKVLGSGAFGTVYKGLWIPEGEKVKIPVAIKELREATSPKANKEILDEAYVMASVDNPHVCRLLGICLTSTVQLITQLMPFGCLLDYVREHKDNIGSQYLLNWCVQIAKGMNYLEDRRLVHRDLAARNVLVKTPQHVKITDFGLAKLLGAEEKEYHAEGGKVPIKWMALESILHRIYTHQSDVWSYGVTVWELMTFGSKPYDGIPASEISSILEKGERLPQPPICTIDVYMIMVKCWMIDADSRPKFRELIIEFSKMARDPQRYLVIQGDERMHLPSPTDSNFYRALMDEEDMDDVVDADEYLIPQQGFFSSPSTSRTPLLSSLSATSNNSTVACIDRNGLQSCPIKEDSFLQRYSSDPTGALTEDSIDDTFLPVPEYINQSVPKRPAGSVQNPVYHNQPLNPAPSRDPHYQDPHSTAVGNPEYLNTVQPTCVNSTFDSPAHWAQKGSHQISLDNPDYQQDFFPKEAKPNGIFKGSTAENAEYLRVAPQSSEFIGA

[4] = system: HCT-116 colorectal cancer cell line; test: MTT antiproliferative assay, HCT-116; settings: for GI% HCT-116: 10 µM, 24 h, MTT; for IC50: Homo sapiens, HCT-116, 24 h, read-out: IC50 HCT-116 (half maximal growth inhibitory concentration)
[5] = system: HeLa cervical cancer cell line; test: MTT antiproliferative assay, HeLa; assay type: cell-based; settings: 10 µM, 24 h
Experimental: as §1

Row | Compound | IC50 (c-Src) [nM] | IC50 (BTK) [nM] | IC50 (FAK) [nM] | GI% MCF-7 [1] [%] | IC50 (VEGFR-1) [nM] | IC50 (FRK) [nM] | melting point [°C] | GI% MDMBA-231 [2] [%] | IC50 (VEGFR-2) [nM] | IC50 (IGF-1R) [nM] | IC50 (HER-2) [nM] | TOP1 inhibitory activity (semiquantitative score relative to 1 µM CPT) (recombinant human TOP1) | GI% DLD1 [3] [%] | IC50 [3] [nM] | IC50 (EGFR) [nM] | GI% HCT-116 [4] [%] | IC50 [4] [nM] | GI% Hela [5] [%] | fold decreased activity than Gefitinib, EGFR (EGFR; from IC50 values) [fold]
1 | COc1cc2nc(-c3ccc(Cl)cc3)cc(OCCCN3CCN(C)CC3)c2cc1OC [6a, 2-(4-chlorophenyl)-6,7-dimethoxy-4–(3-(4-methylpiperazin-1-yl)propoxy)quinoline] | 783 | 1590 | 214.4 ± 1.09 | 17.34 | 95.3 | 825 | 140 to 142 | 9.38 | 268 | 1020 | 1240 | −/+ (−/+: 0–25% 1 µM CPT) | 22.56 | > 100000 | 143 ± 2.54 | 31.34 | 65400 ± 4370 | 20.15 | –
2 | COc1cc2nc(-c3ccc(Cl)cc3)cc(OCCCNC3CCCCC3)c2cc1OC [6b, N-(3-((2–(4-chlorophenyl)-6,7-dimethoxyquinolin-4-yl)oxy)propyl)cyclohexanamine] | 2500 | 8520 | 98.2 ± 4.67 | 23.49 | 3330 | 9150 | 118 to 120 | 19.67 | 6740 | 8060 | 123 | −/+ (−/+: 0–25% 1 µM CPT) | 36.25 | 19400 ± 2150 | 45.3 ± 5.36 | 42.81 | 16800 ± 1560 | 12.81 | –
3 | COc1cc2nc(-c3ccc(Cl)cc3)cc(OCCCNC3CCN(C)CC3)c2cc1OC [6c, N-(3-((2–(4-chlorophenyl)-6,7-dimethoxyquinolin-4-yl)oxy)propyl)-1-methylpiperidin-4-amine] | 1500 | 2250 | 45.7 ± 3.4 | 15.76 | 606 | 1560 | 124 to 126 | 19.38 | 405 | 2030 | 1380 | −/+ (−/+: 0–25% 1 µM CPT) | 28.22 | 47000 ± 2460 | 85.7 ± 6.46 | 41.36 | 13700 ± 1290 | 4.96 | 2
4 | COc1cc2nc(-c3ccc(Cl)cc3)cc(OCCCNCC3CCCO3)c2cc1OC (stereo not shown) [6d, 3-((2–(4-chlorophenyl)-6,7-dimethoxyquinolin-4-yl)oxy)-N-((tetrahydrofuran-2-yl)methy-l)propan-1-amine] | 408 | 1370 | 37 ± 2.34 | 71.97 | 303 | 507 | 108 to 110 | 63.39 | 492 | 1590 | 695 | −/+ (−/+: 0–25% 1 µM CPT) | 75.64 | 8150 ± 1050 | 46.4 ± 4.09 | 82.61 | 4670 ± 850 | 26.98 | –
5 | COc1cc2nc(-c3ccc(Cl)cc3)cc(OCCCn3ccnc3)c2cc1OC [6e, 4-(3-(1H-imidazol-1-yl)propoxy)-2–(4-chlorophenyl)-6,7-dimethoxyquinoline] | 198 | 4940 | 211 ± 8.96 | 5.34 | 7330 | 9000 | 209 to 211 | 4.67 | 3760 | 2160 | 82.1 | −/+ (−/+: 0–25% 1 µM CPT) | 15.79 | > 100000 | 157 ± 11.4 | 22.03 | > 100000 | 22.36 | –
6 | COc1cc2nc(-c3ccc(C(F)(F)F)cc3)cc(OCCCNC3CCCCC3)c2cc1OC [6g, N-(3-((6,7-dimethoxy-2–(4-(trifluoromethyl)phenyl)quinolin-4-yl)oxy)propyl)cyclohexan-amine] | 2760 | 4760 | 146 ± 10.5 | 76.38 | 1110 | 1280 | 131 to 133 | 48.15 | 997 | 1480 | 455 | 0 | 25.36 | 75400 ± 5460 | 365 ± 14.8 | 22.16 | 46800 ± 3160 | 46.28 | –
7 | COc1cc2nc(-c3ccc(C(F)(F)F)cc3)cc(OCCCn3ccnc3)c2cc1OC [6j, 4-(3-(1H-imidazol-1-yl)propoxy)-6,7-dimethoxy-2–(4-(trifluoromethyl)phenyl)quinoline] | 186 | 185 | 186 ± 6.22 | 14.67 | 769 | 139 | 217 to 219 | 8.42 | 392 | 219 | 206 | 0 | 6.31 | > 100000 | 258 ± 11.9 | 2.46 | > 100000 | 5.67 | –
8 | COc1cc2ncnc(Nc3ccc(F)c(Cl)c3)c2cc1OCCCN1CCOCC1 [Gefitinib, reference compound] | – | – | – | – | – | – | – | – | – | – | – | – | – | – | – | – | 6940 ± 1240 | – | –
9 | CNC(=O)c1ccccc1Nc1nc(Nc2ccc(N3CCOCC3)cc2OC)ncc1Cl [TAE226, reference compound] | – | – | – | – | – | – | – | – | – | – | – | – | – | 120 ± 50 | – | – | 170 ± 40 | – | –
